SMILES strings stand for the structures. pIC50: −log10 of the molar value.

In this assay the target is T1, HCV polymerase (Hepatitis C virus genotype 1b, UniProt P26663).
T1 construct: 2.5 pmoles (0.15 μg) HCV polymerase protein in a final volume of 75 μL
T1 sequence (P26663 2420-3010): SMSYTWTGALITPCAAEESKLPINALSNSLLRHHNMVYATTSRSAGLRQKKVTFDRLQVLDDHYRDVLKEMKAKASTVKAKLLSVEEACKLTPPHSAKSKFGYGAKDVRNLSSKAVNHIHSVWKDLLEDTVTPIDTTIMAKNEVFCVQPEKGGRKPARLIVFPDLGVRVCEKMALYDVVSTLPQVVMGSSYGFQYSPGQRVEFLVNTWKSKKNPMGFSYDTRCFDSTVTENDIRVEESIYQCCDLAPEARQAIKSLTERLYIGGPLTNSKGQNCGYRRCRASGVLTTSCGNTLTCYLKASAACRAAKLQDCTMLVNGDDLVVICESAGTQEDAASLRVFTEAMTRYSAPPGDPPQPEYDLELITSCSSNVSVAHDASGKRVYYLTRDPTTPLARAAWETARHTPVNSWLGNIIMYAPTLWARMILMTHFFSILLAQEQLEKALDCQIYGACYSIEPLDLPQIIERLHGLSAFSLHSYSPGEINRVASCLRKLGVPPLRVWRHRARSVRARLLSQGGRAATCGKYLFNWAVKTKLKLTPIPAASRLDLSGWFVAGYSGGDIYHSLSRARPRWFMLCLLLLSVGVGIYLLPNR
Put plainly: HCV polymerase primer/template-directed transcription assay (32P-GTP incorporation, filter binding). In kind it is biochemical. Conditions: recombinant HCV polymerase; 30 minutes at 30° C.; concentration giving 50% inhibition of polymerase-directed transcription; read-out: IC50. In outline: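 Recombinant genotype 1b polymerase (30 nM) extended biotin-dG12 primer on poly(rC)300 template with 1 μM GTP plus α-32P-GTP, pH 7.2, 10 mM MgCl2, 30 min at 30° C, 1% DMSO final. Products captured on DE filters and counted. IC50 fitted from triplicate cpm, with a tight-binding correction applied below 200 nM.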
For the compound `CC(C)(O)c1ccc(CCC2(C3CCCC3)CC(O)=C(Cc3nc4ncc(Cl)cn4n3)C(=O)O2)cc1F` (stereo not shown) [A(214), 3-[(6-chloro[1,2,4]triazolo[1,5-a]pyrimidin-2-yl)methyl]-6-cyclopentyl-6-{2-[3-fluoro-4-(1-hydroxy-1-methylethyl)phenyl]ethyl}-4-hydroxy-5,6-dihydro-2H-pyran-2-one], the pIC50 (commonly the negative decadic logarithm of the IC50, by convention in mol/L) was 7.42. Next, `CC(C)(O)c1ccc(CCC2(C3CCCC3)CC(=O)CC(=O)O2)cc1F` (stereo not shown) [A(215), 6-cyclopentyl-6-{2-[3-fluoro-4-(1-hydroxy-1-methylethyl)phenyl]ethyl}dihydro-2H-pyran-2,4(3H)-dione]: 5.31; `Cc1cnc2nc(CC3=C(O)CC(CCc4ccc(C(C)(C)O)c(F)c4)(C4CCCC4)OC3=O)nn2c1` (stereo not shown) [A(216)]: 7.35; `Cc1cc(C)n2nc(CC3=C(O)CC(CCc4ccc(C(C)(C)O)c(F)c4)(C4CCCC4)OC3=O)nc2n1` (stereo not shown) [A(217), 6-cyclopentyl-3-[(5,7-dimethyl[1,2,4]triazolo[1,5-a]pyrimidin-2-yl)methyl]-6-{2-[3-fluoro-4-(1-hydroxy-1-methylethyl)phenyl]ethyl}-4-hydroxy-5,6-dihydro-2H-pyran-2-one]: 7.85. Next, `CC(C)(O)c1ccc(CCC2(C3CCCC3)CC(O)=C(Cc3nc4ncccn4n3)C(=O)O2)cc1F` (stereo not shown) [A(220), 6-cyclopentyl-6-{2-[3-fluoro-4-(1-hydroxy-1-methylethyl)phenyl]ethyl}-4-hydroxy-3-([1,2,4]triazolo[1,5-a]pyrimidin-2-ylmethyl)-5,6-dihydro-2H-pyran-2-one]: 6.76; `CC(C)(C#N)c1ccc(CCC2(C3CCCC3)CC(O)=C(Cc3cn4cccnc4n3)C(=O)O2)cc1F` (stereo not shown) [A(221), 2-(4-{2-[2-cyclopentyl-4-hydroxy-5-(imidazo[1,2-a]pyrimidin-2-ylmethyl)-6-oxo-3,6-dihydro-2H-pyran-2-yl]ethyl}-2-fluorophenyl)-2-methylpropanenitrile]: 7.85; `CC(C)(C#N)c1ccc(CCC2(C3CCCC3)CC(O)=C(Cc3cnc4ncccn34)C(=O)O2)cc1F` (stereo not shown) [A(222), 2-(4-{2-[2-cyclopentyl-4-hydroxy-5-(imidazo[1,2-a]pyrimidin-3-ylmethyl)-6-oxo-3,6-dihydro-2H-pyran-2-yl]ethyl}-2-fluorophenyl)-2-methylpropanenitrile]: 6.92. Regarding `Cc1cnc2nc(CC3=C(O)CC(CCc4ccc(O)c(CC(F)(F)F)c4)(C4CCCC4)OC3=O)nn2c1` (stereo not shown) [A(224), 6-cyclopentyl-4-hydroxy-6-{2-[4-hydroxy-3-(2,2,2-trifluoroethyl)phenyl]ethyl}-3-[(6-methyl[1,2,4]triazolo[1,5-a]pyrimidin-2-yl)methyl]-5,6-dihydro-2H-pyran-2-one], the pIC50 was 8.40. Next, `Cc1cc(C)n2nc(CC3=C(O)CC(CCc4ccc(O)c(CC(F)(F)F)c4)(C4CCCC4)OC3=O)nc2n1` (stereo not shown) [A(225), 6-cyclopentyl-3-[(5,7-dimethyl[1,2,4]triazolo[1,5-a]pyrimidin-2-yl)methyl]-4-hydroxy-6-{2-[4-hydroxy-3-(2,2,2-trifluoroethyl)phenyl]ethyl}-5,6-dihydro-2H-pyran-2-one]: 8.52; `O=C1CC(=O)OC(CCc2ccc(O)c(CC(F)(F)F)c2)(C2CCCC2)C1` (stereo not shown) [A(228), 6-cyclopentyl-6-{2-[4-hydroxy-3-(2,2,2-trifluoroethyl)phenyl]ethyl}dihydro-2H-pyran-2,4(3H)-dione]: 6.33; `CCc1cc(CCC2(C3CCCC3)CC(O)=C(Cc3nc4nc(C)ccn4n3)C(=O)O2)ccc1O` (stereo not shown) [A(229), 6-cyclopentyl-6-[2-(3-ethyl-4-hydroxyphenyl)ethyl]-4-hydroxy-3-[(5-methyl[1,2,4]triazolo[1,5-a]pyrimidin-2-yl)methyl]-5,6-dihydro-2H-pyran-2-one]: 8.00.

For `CCc1cc(CCC2(C3CCCC3)CC(O)=C(Cc3nc4ncc(Br)cn4n3)C(=O)O2)ccc1O` (stereo not shown) [A(230), 3-[(6-bromo[1,2,4]triazolo[1,5-a]pyrimidin-2-yl)methyl]-6-cyclopentyl-6-[2-(3-ethyl-4-hydroxyphenyl)ethyl]-4-hydroxy-5,6-dihydro-2H-pyran-2-one], the pIC50 was 7.96. For the compound `CCc1cc(CCC2(C3CCCC3)CC(O)=C(Cc3nc4ncc(Cl)cn4n3)C(=O)O2)cc(CC)c1O` (stereo not shown) [A(231), 3-[(6-chloro[1,2,4]triazolo[1,5-a]pyrimidin-2-yl)methyl]-6-cyclopentyl-6-[2-(3,5-diethyl-4-hydroxyphenyl)ethyl]-4-hydroxy-5,6-dihydro-2H-pyran-2-one], the pIC50 is 8.22. Next, `CCc1cc(CCC2(C3CCCC3)CC(O)=C(Cc3nc4nc(C)cc(C)n4n3)C(=O)O2)cc(CC)c1O` (stereo not shown) [A(232), 6-cyclopentyl-6-[2-(3,5-diethyl-4-hydroxyphenyl)ethyl]-3-[(5,7-dimethyl[1,2,4]triazolo[1,5-a]pyrimidin-2-yl)methyl]-4-hydroxy-5,6-dihydro-2H-pyran-2-one]: 8.40; `CCc1cc(CCC2(C3CCCC3)CC(O)=C(Cc3nc4ncc(C)cn4n3)C(=O)O2)cc(CC)c1O` (stereo not shown) [A(233), 6-cyclopentyl-6-[2-(3,5-diethyl-4-hydroxyphenyl)ethyl]-4-hydroxy-3-[(6-methyl[1,2,4]triazolo[1,5-a]pyrimidin-2-yl)methyl]-5,6-dihydro-2H-pyran-2-one]: 7.96; `CCc1cc(CCC2(C3CCCC3)CC(O)=C(Cc3nc4ncccn4n3)C(=O)O2)cc(CC)c1O` (stereo not shown) [A(234), 6-cyclopentyl-6-[2-(3,5-diethyl-4-hydroxyphenyl)ethyl]-4-hydroxy-3-([1,2,4]triazolo[1,5-a]pyrimidin-2-ylmethyl)-5,6-dihydro-2H-pyran-2-one]: 7.96. The figure for `CCc1cc(CCC2(C3CCCC3)CC(=O)CC(=O)O2)cc(CC)c1O` (stereo not shown) [A(235), 6-cyclopentyl-6-[2-(3,5-diethyl-4-hydroxyphenyl)ethyl]dihydro-2H-pyran-2,4(3H)-dione] is 6.05; for `Cc1cc(C)n2nc(CC3=C(O)CC(CCc4ccc(C5(C#N)CCC5)c(F)c4)(C4CCCC4)OC3=O)nc2n1` (stereo not shown) [A(236), 1-(4-{2-[2-Cyclopentyl-5-(5,7-dimethyl-[1,2,4]triazolo[1,5-a]pyrimidin-2-ylmethyl)-4-hydroxy-6-oxo-3,6-dihydro-2H-pyran-2-yl]-ethyl}-2-fluoro-phenyl)-cyclobutanecarbonitrile] it is 8.52; for `N#CC1(c2ccc(CCC3(C4CCCC4)CC(=O)CC(=O)O3)cc2F)CCC1` (stereo not shown) [A(237), 1-{4-[2-(2-Cyclopentyl-4,6-dioxo-tetrahydro-pyran-2-yl)-ethyl]-2-fluoro-phenyl}-cyclobutanecarbonitrile] it is 6.00. The figure for `N#CC1(c2ccc(CCC3(C4CCCC4)CC(O)=C(Cc4nc5ncccn5n4)C(=O)O3)cc2F)CCC1` (stereo not shown) [A(238), 1-{4-[2-(2-Cyclopentyl-4-hydroxy-6-oxo-5-[1,2,4]triazolo[1,5-a]pyrimidin-2-ylmethyl-3,6-dihydro-2H-pyran-2-yl)-ethyl]-2-fluoro-phenyl}-cyclobutanecarbonitrile] is 8.00; for `Cc1cnc2nc(CC3=C(O)CC(CCc4ccc(C5(C#N)CCC5)c(F)c4)(C4CCCC4)OC3=O)nn2c1` (stereo not shown) [A(239), 1-(4-{2-[2-Cyclopentyl-4-hydroxy-5-(6-methyl-[1,2,4]triazolo[1,5-a]pyrimidin-2-ylmethyl)-6-oxo-3,6-dihydro-2H-pyran-2-yl]-ethyl}-2-fluoro-phenyl)-cyclobutanecarbonitrile] it is 8.52. For `Cc1cnc2nc(CC3=C(O)CC(CCc4ccc(C(C)C#N)c(F)c4)(C4CCCC4)OC3=O)nn2c1` (stereo not shown) [A(240), 2-(4-{2-[2-Cyclopentyl-4-hydroxy-5-(6-methyl-[1,2,4]triazolo[1,5-a]pyrimidin-2-ylmethyl)-6-oxo-3,6-dihydro-2H-pyran-2-yl]-ethyl}-2-fluoro-phenyl)-propionitrile], the pIC50 is 8.05. `CC(C#N)c1ccc(CCC2(C3CCCC3)CC(=O)CC(=O)O2)cc1F` (stereo not shown) [A(241), 2-{4-[2-(2-Cyclopentyl-4,6-dioxo-tetrahydro-pyran-2-yl)-ethyl]-2-fluoro-phenyl}-propionitrile]: the pIC50 was 6.10. Next, `CCc1cnc2nc(CC3=C(O)CC(CCc4cc(F)c(C(C)(C)C#N)c(F)c4)(C4CCCC4)OC3=O)nn2c1` (stereo not shown) [A(252), 2-(4-{2-[2-Cyclopentyl-5-(6-ethyl-[1,2,4]triazolo[1,5-a]pyrimidin-2-ylmethyl)-4-hydroxy-6-oxo-3,6-dihydro-2H-pyran-2-yl]-ethyl}-2,6-difluoro-phenyl)-2-methyl-propionitrile]: 8.00. The figure for `Cc1ccn2nc(CC3=C(O)CC(CCc4cc(F)c(C(C)(C)C#N)c(F)c4)(C4CCCC4)OC3=O)nc2n1` (stereo not shown) [A(253), 2-(4-{2-[2-Cyclopentyl-4-hydroxy-5-(5-methyl-[1,2,4]triazolo[1,5-a]pyrimidin-2-ylmethyl)-6-oxo-3,6-dihydro-2H-pyran-2-yl]-ethyl}-2,6-difluoro-phenyl)-2-methyl-propionitrile] is 8.22.

For `Cc1cnc2nc(CC3=C(O)CC(CCc4cc(F)c(C5(C#N)CC5)c(F)c4)(C4CCCC4)OC3=O)nn2c1` (stereo not shown) [A(254)], the pIC50 is 7.92. With `N#CC1(c2c(F)cc(CCC3(C4CCCC4)CC(=O)CC(=O)O3)cc2F)CC1` (stereo not shown) [A(255), 1-{4-[2-(2-Cyclopentyl-4,6-dioxo-tetrahydro-pyran-2-yl)-ethyl]-2,6-difluoro-phenyl}-cyclopropanecarbonitrile], the pIC50 was 5.72.

On to `COc1cc(C(C)(C)C#N)c(F)cc1CCC1(C2CCCC2)CC(O)=C(Cc2nc3ncc(C)cn3n2)C(=O)O1` (stereo not shown) [A(261), 2-(4-{2-[2-Cyclopentyl-4-hydroxy-5-(6-methyl-[1,2,4]triazolo[1,5-a]pyrimidin-2-ylmethyl)-6-oxo-3,6-dihydro-2H-pyran-2-yl]-ethyl}-2-fluoro-5-methoxy-phenyl)-2-methyl-propionitrile], for which the negative-log IC50 (pIC50) was 8.40.

Source of the values: US7473790B2 (Pfizer Inc., priority 2003, dated 2009).
